Measurements from patent US10538487B2, “Sulfonylureas and related compounds and use of same” (priority 2015, dated 2020).
Where two headings read alike, the source gives them in different places.

Assays:
[1] = target: T1, NLRP3 inflammasome (Homo sapiens, UniProt Q96P20); test: Inhibition of IL-1β release, NLRP3 inflammasome activation assay in HMDM; type: cell-based
In short: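 Primary human monocyte-derived macrophages from CD14+ buffy-coat monocytes, seeded at 1×10^5/ml. Compound added in serum-free medium 30 min before NLRP3 stimulation (ATP, nigericin, LeuLeu-OMe or MSU). Cytokine in supernatants measured by ELISA or AlphaLISA; cell death by LDH release relative to full lysis.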

[2] = target: T1, NLRP3 inflammasome; test: Inhibition of IL-18 release, NLRP3 inflammasome activation assay in HMDM; type: cell-based; settings: class symbols
Experimental: (§1) The following assays can be used to determine inhibitory activity of test compounds on the NLRP3 inflammasome using common stimuli such as adenosine triphosphate, nigericin, LeuLeu-OMe or monosodium urate crystals (MSU).
To generate HMDM, human monocytes are isolated from buffy coat blood using Ficoll-Plaque Plus (GE Healthcare) and density centrifugation. CD14^+ cell selection is performed using MACS magnetic beads (Miltenyl Biotec).
HMDM are seeded at 1×10^5/ml. […] Medium is removed and replaced with serum free medium (SFM) containing test compound 30 min prior to NLRP3 stimulation. […] ATP can be sourced from Sigma Aldrich, nigericin and MSU from Invivogen and LeuLeu-Ome from Chem-Impex International.
(§2) For ELISA and cell death assays cells are seeded in 96 well plates. Supernatants are removed and analysed using ELISA kits according to the manufacturer's instructions (DuoSet® R&D Systems, ReadySetGo!® eBioscience, BD OptEIA™, or Perkin Elmer AlphaLISA®). Cell death is assessed by measurement of LDH release relative to a 100% cell lysis control using the CytoTox96® non-radioactive cytotoxicity assay (Promega).

[3] = Half life of CRID3 in mouse (stated in description); type: in vivo
[4] = target: NLRP3 inflammasome (Mus musculus, UniProt Q8R4B8); test: Inhibition of IL-1β release, NLRP3 inflammasome activation assay in BMDM; type: cell-based
NLRP3 inflammasome (Mus musculus, UniProt Q8R4B8), sequence (Q8R4B8 whole entry): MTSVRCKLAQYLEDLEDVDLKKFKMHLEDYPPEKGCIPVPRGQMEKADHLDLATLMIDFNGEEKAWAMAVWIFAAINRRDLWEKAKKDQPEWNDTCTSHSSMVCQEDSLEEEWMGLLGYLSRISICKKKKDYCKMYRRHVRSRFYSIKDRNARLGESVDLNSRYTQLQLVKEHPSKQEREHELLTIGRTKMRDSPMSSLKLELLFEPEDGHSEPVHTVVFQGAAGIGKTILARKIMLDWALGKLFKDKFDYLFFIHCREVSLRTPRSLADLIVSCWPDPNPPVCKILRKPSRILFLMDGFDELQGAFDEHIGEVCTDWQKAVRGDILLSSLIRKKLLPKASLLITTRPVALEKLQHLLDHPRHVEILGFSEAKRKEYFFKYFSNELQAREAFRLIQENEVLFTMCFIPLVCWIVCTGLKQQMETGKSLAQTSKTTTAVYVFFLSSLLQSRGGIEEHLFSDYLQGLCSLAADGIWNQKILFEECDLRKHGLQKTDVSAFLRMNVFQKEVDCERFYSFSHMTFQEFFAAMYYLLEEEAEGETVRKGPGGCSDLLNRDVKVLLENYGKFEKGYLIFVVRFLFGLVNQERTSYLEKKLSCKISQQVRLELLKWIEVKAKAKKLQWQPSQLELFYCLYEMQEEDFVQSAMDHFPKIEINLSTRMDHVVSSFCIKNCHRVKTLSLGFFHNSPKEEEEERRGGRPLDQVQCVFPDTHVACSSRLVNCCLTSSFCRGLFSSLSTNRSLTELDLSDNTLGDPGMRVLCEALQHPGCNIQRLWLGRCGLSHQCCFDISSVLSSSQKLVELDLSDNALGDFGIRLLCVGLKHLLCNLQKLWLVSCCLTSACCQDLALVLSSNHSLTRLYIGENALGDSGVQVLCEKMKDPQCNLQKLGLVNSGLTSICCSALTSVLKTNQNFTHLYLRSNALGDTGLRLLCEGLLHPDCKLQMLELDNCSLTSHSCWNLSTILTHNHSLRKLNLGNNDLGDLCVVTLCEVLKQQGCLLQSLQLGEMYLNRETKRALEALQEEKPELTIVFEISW
Experimental: as §1
Mouse bone marrow-derived macrophages (BMDM) were derived from bone marrow progenitors isolated from the femurs and tibias of C57BL/6 mice.
BMDM are seeded at 1×10^5/ml. The following day the overnight medium is replaced and cells are stimulated with Ultrapure lipopolysaccharide from Escherichia coli K12 strain (InvivoGen) for 3 h. Medium is removed and replaced with serum free medium (SFM) containing test compound 30 min prior to NLRP3 stimulation. […] ATP can be sourced from Sigma Aldrich, nigericin and MSU from Invivogen and LeuLeu-Ome from Chem-Impex International.
as §2

[5] = Compound levels in blood plasma of mice after oral gavage (LC-MS/MS); type: in vivo; settings: mouse, 2 hour timepoint after oral gavage at 20 mg/Kg
Experimental: A series of 10-fold dilutions of the 100,000 ng/mL stock solution with 10 mM NH4HCO3 gave concentrations of 10,000, 1,000, 100 and 10 ng/mL. The 100,000 ng/mL stock solution was diluted to 3:7 with 10 mM NH4HCO3 to give a concentration of 30,000 ng/mL and a series of 10-fold dilutions gave concentrations of 3,000, 300, 30 and 3 ng/mL.
20 μL of test compound-containing solution and 160 μL precipitation solution were added to 20 μL of mouse plasma in a low binding Eppendorf tube. The samples were vortexed, allowed to stand at 4° C. for 10 mins and centrifuged at 14,000×g for 8 min. 150 μL of the supernatant was transferred to an HPLC vial insert. The samples were stored at 4° C. until analysis.
Dosing: Oral gavage at 20 mg/kg
(§3) Prepare stock compounds for dosing at 4 mg/ml in sterile PBS. Mice were weighed and dosed by oral gavage at 20 mg/kg for each compound. […]
The samples were analysed on an AB Sciex 4000QTrap MS with 2 Shimadzu Nexera LC-30AD Solvent Delivery Units, Shimadzu Nexera SIL-30AC Auto-Sampler, Shimadzu Prominence DGU-20A5 Degasser, Shimadzu Prominence CBM-20A System Controller and Shimadzu Prominence CTO-20A Column Oven. […] The peak areas from the SRM data for carbutamide and test compound were analysed using the AB Sciex's Analyst software using the Quantitation Wizard.

[6] = in vivo; settings: mouse, brain, mice, oral gavage at 20 mg/kg
Experimental: The sample solutions prepared for the plasma standard curve were used for the brain homogenate standard curve.
The mouse brain homogenate from the saline control was thawed and vortexed for 3 min or until homogenous, sonicated for 1 min. When the foam settled, 50 μL of mouse brain homogenate was transferred into an Eppendorf tube, followed by 50 μL of test compound in 10 mM NH4HCO3, 150 μL of H2O and 500 μL of ice cold precipitation solution with vortexing after every addition. The standards were allowed to stand at 4° C. for 10 mins and then centrifuged at 14,000×g for 8 min. 200 μL of the supernatant was transferred to HPLC vial insert ensuring that no air bubbles were present and the samples stored at 4° C. until analysis.
Dosing: Oral gavage at 20 mg/kg
as §3
The samples were analysed on an AB Sciex 4000QTrap MS with 2 Shimadzu Nexera LC-30AD Solvent Delivery Units, Shimadzu Nexera SIL-30AC Auto-Sampler, Shimadzu Prominence DGU-20A5 Degasser, Shimadzu Prominence CBM-20A System Controller and Shimadzu Prominence CTO-20A Column Oven. […] The peak areas from the SRM data for carbutamide and test compound were analysed using the AB Sciex's Analyst software using the Quantitation Wizard. […]

[7] = inhibition of IL-1β release, class symbols, read-out: Avg. IL-1β IC50 HMDM
[8] = inhibition of IL-1β release, class symbols, read-out: Avg. IL-1β IC50 Murine BMDM
[9] = select compounds of the first aspect (Table 10), read-out: BMDM IC50 vs NLRP3
[10] = select compounds of the first aspect (Table 10), read-out: HMDM IC50 vs NLRP3
[11] = inhibition of IL-1β release, numeric bounds, read-out: Avg. IL-1β IC50 Murine BMDM

T1 sequence (Q96P20 whole entry): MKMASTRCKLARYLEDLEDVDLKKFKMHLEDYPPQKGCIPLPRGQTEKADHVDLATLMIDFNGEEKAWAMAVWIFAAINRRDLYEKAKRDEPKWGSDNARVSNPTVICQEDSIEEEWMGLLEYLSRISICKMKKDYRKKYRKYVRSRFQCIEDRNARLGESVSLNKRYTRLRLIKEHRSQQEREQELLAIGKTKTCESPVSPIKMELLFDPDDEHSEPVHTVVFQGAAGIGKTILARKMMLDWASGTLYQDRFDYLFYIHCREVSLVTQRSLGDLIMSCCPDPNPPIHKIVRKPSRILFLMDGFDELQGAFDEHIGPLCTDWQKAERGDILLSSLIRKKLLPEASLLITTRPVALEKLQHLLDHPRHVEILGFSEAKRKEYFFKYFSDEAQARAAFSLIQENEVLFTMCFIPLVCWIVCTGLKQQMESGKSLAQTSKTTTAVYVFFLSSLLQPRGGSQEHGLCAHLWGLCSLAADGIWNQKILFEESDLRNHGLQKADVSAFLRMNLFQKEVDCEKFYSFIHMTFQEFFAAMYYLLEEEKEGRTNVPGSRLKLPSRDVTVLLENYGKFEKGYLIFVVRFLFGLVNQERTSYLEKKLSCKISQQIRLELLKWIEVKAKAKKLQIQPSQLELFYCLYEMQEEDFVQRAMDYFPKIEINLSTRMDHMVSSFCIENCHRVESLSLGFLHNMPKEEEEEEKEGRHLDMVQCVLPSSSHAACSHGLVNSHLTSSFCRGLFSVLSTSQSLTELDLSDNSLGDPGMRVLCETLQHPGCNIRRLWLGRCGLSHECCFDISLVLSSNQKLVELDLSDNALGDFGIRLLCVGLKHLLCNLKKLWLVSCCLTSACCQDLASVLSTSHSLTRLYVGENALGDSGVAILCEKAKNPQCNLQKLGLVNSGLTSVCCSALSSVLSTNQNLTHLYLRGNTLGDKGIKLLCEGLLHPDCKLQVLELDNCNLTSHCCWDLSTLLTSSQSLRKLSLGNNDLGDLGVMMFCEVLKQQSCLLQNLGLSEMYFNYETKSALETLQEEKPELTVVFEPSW

Structure (SMILES) | IC50 [1, 7] [nM] | IC50 [4, 8] [nM] | also measured
O=C(Nc1c2c(cc3c1CCC3)CCC2)NS(=O)(=O)c1ncn(Cc2ccccc2)n1 [1-benzyl-N-((1,2,3,5,6,7-hexahydro-s-indacen-4-yl)carbamoyl)-1H-1,2,4-triazole-3-sulfonamide] | < 100 | – | IC50 [2]: < 100 nM
Cc1ccc(S(=O)(=O)NC(=O)Nc2c3c(cc4c2CCC4)CCC3)s1 [N-((1,2,3,5,6,7-hexahydro-s-indacen-4-yl)carbamoyl)-5-methylthiophene-2-sulfonamide] | < 100 | – | IC50 [2]: < 100 nM
CC(C)(C)n1ccc(S(=O)(=O)NC(=O)Nc2c3c(cc4c2CCC4)CCC3)n1 [1-(tert-butyl)-N-((1,2,3,5,6,7-hexahydro-s-indacen-4-yl)carbamoyl)-1H-pyrazole-3-sulfonamide] | < 100 | – | IC50 [2]: < 100 nM
CC(C)(O)c1cc(S(=O)(=O)NC(=O)Nc2c3c(cc4c2CCC4)CCC3)nn1Cc1ccccc1 [1-benzyl-N-((1,2,3,5,6,7-hexahydro-s-indacen-4-yl)carbamoyl)-5-(2-hydroxypropan-2-yl)-1H-pyrazole-3-sulfonamide] | < 100 | – | IC50 [2]: < 100 nM
CC(C)(O)c1coc(S(=O)(=O)NC(=O)Nc2c3c(cc4c2CCC4)CCC3)c1 [CRID3] | – | – | half life [3]: 3.2 h
O=C(Nc1c2c(cc3c1CCC3)CCC2)NS(=O)(=O)c1cccs1 [N-((1,2,3,5,6,7-hexahydro-s-indacen-4-yl)carbamoyl)thiophene-2-sulfonamide] | < 100 | – | IC50 [2]: < 100 nM
Cn1nc(S(=O)(=O)NC(=O)Nc2c3c(cc4c2CCC4)CCC3)cc1C(C)(C)O [N-((1,2,3,5,6,7-hexahydro-s-indacen-4-yl)carbamoyl)-5-(2-hydroxypropan-2-yl)-1-methyl-1H-pyrazole-3-sulfonamide] | < 100 | < 100 | IC50 [2]: < 100 nM
CCC1=C(C)CN(C(=O)NCCc2ccc(S(=O)(=O)NC(=O)Nc3c4c(cc5c3CCC5)CCC4)cc2)C1=O [drawing 360] | – | – | IC50 [4, 9]: 220 nM; IC50 [1, 10]: 650 nM
COc1cc(Cl)cc(OC)c1NC(=O)NS(=O)(=O)c1ccn(C(C)C)n1 [N-((4-chloro-2,6-dimethoxyphenyl)carbamoyl)-1-isopropyl-1H-pyrazole-3-sulfonamide] | < 50000 | – | IC50 [4, 11]: > 10000 nM
CC(C)c1cc(Cl)cc(C(C)C)c1NC(=O)NS(=O)(=O)c1cc2ccccc2o1 [N-((4-chloro-2,6-diisopropylphenyl)carbamoyl)benzofuran-2-sulfonamide] | < 100 | < 100 | –
Nc1ccc(S(=O)(=O)NC(=O)Nc2c3c(cc4c2CCC4)CCC3)cc1 [drawing 365] | – | – | IC50 [4, 9]: 14 nM; IC50 [1, 10]: 310 nM
CC(C)n1ccc(S(=O)(=O)NC(=O)Nc2c(C3CC3)cc(Cl)cc2C2CC2)n1 [N-((4-chloro-2,6-dicyclopropylphenyl)carbamoyl)-1-isopropyl-1H-pyrazole-3-sulfonamide] | < 1000 | < 1000 | –
CC(=O)c1ccc(S(=O)(=O)NC(=O)Nc2c3c(cc4c2CCC4)CCC3)cc1 [4-Acetyl-N-((1,2,3,5,6,7-hexahydro-s-indacen-4-yl)carbamoyl)benzenesulfonamide] | < 1000 | < 100 | –
O=C(Nc1c2c(cc3c1CCC3)CCC2)NS(=O)(=O)c1ccc2c(c1)CCC2 [N-((1,2,3,5,6,7-hexahydro-s-indacen-4-yl)carbamoyl)-2,3-dihydro-1H-indene-5-sulfonamide] | < 10000 | < 100 | –
CC(C)c1cccc(C(C)C)c1NC(=O)NS(=O)(=O)c1cc(C(C)(C)O)n(C)n1 [N-((2,6-diisopropylphenyl)carbamoyl)-5-(2-hydroxypropan-2-yl)-1-methyl-1H-pyrazole-3-sulfonamide] | < 100 | – | IC50 [2]: < 100 nM
CC(C)(O)c1cc(S(=O)(=O)NC(=O)Nc2c3c(cc4c2CCC4)CCC3)nn1-c1ccccc1 [N-((1,2,3,5,6,7-hexahydro-s-indacen-4-yl)carbamoyl)-5-(2-hydroxypropan-2-yl)-1-phenyl-1H-pyrazole-3-sulfonamide] | < 100 | < 100 | IC50 [2]: < 100 nM

Structure (SMILES) | IC50 [1, 7] [nM] | IC50 [4, 8] [nM] | also measured
CC(C)(O)c1coc(S(=O)(=O)NC(=O)Nc2c3c(cc4c2CCC4)CCC3)c1 [drawing 335] | – | – | concentration at 2 h [5]: 17500 ng/mL; concentration at 2 h [6]: 184 ng/g; Kp at 2 h ([6]; read-out: Brain/Plasma Ratio): 0.0117
CCc1cc(Cl)cc(CC)c1NC(=O)NS(=O)(=O)c1ccn(C(C)C)n1 [N-((4-chloro-2,6-diethylphenyl)carbamoyl)-1-isopropyl-1H-pyrazole-3-sulfonamide] | < 10000 | < 10000 | –
C=C(C)c1coc(S(=O)(=O)NC(=O)Nc2c3c(cc4c2CCC4)CCC3)c1 [N-((1,2,3,5,6,7-hexahydro-s-indacen-4-yl)carbamoyl)-4-(prop-1-en-2-yl)furan-2-sulfonamide] | < 1000 | < 1000 | –
O=C(Nc1ccc(Cl)cc1)NS(=O)(=O)c1ccc2c(c1)CCC2 [N-((4-chlorophenyl)carbamoyl)-2,3-dihydro-1H-indene-5-sulfonamide] | – | – | IC50 [4, 11]: > 10000 nM; IC50 ([1]; inhibition of IL-1β release, numeric bounds, read-out: Avg. IL-1β IC50 HMDM): > 100000 nM
COc1ccc(Cl)cc1C(=O)NCCc1ccc(S(=O)(=O)NC(=O)Nc2c3c(cc4c2CCC4)CCC3)cc1 [drawing 358] | – | – | IC50 [4, 9]: 240 nM; IC50 [1, 10]: 140 nM
Cc1cc(C(=O)NCCc2ccc(S(=O)(=O)NC(=O)Nc3c4c(cc5c3CCC5)CCC4)cc2)no1 [drawing 362] | – | – | IC50 [4, 9]: 280 nM; IC50 [1, 10]: 190 nM
COc1ccc2c(c1)C(=O)N(CCc1ccc(S(N)(=O)=O)cc1)C(=O)C2(C)C [Gliquidone precursor, 4-(2-(7-Methoxy-4,4-dimethyl-1,3-dioxo-3,4-dihydroisoquinolin-2(1H)-yl)ethyl)benzenesulfonamide, reference compound] | – | – | IC50 ([4]; commercial compounds (Table 9), read-out: BMDM IC50 vs NLRP3): > 10000 nM; IC50 ([1]; commercial compounds (Table 9), read-out: HMDM IC50 vs NLRP3): > 200000 nM
NS(=O)(=O)c1cccc(S(=O)(=O)NC(=O)Nc2c3c(cc4c2CCC4)CCC3)c1 [N^1-(1,2,3,5,6,7-Hexahydros-indacen-4-ylcarbamoyl)benzene-1,3-disulfonamide] | < 100 | < 100 | –
CC(C)n1ccc(S(=O)(=O)NC(=O)Nc2c3c(cc4c2CCC4)CCC3)n1 [drawing 336] | – | – | concentration at 2 h [5]: 28200 ng/mL
CC(C)n1ccc(S(=O)(=O)NC(=O)Nc2c(C3CC3)cc(Cl)c3c2CCC3)n1 [N-((7-chloro-5-cyclopropyl-2,3-dihydro-1H-inden-4-yl)carbamoyl)-1-isopropyl-1H-pyrazole-3-sulfonamide] | < 1000 | < 1000 | –
Nc1ccc(S(=O)(=O)NC(=O)Nc2c3c(cc4c2CCC4)CCC3)cc1 [4-Amino-N-((1,2,3,5,6,7-hexahydro-s-indacen-4-yl)carbamoyl)benzenesulfonamide] | < 1000 | < 100 | –
COc1ccc2c(c1)C(=O)N(CCc1ccc(S(=O)(=O)NC(=O)Nc3c4c(cc5c3CCC5)CCC4)cc1)C(=O)C2(C)C [drawing 361] | – | – | IC50 [4, 9]: 260 nM; IC50 [1, 10]: 2300 nM
Cc1cc(C(=O)NCCc2ccc(S(=O)(=O)NC(=O)Nc3c4c(cc5c3CCC5)CCC4)cc2)no1 [N-(4-(N-((1,2,3,5,6,7-hexahydro-s-indacen-4-yl)carbamoyl)sulfamoyl)phenethyl)-5-methylisoxazole-3-carboxamide] | < 1000 | < 1000 | –
Cc1ccc(S(=O)(=O)NC(=O)Nc2c3c(cc4c2CCC4)CCC3)o1 [N-((1,2,3,5,6,7-hexahydro-s-indacen-4-yl)carbamoyl)-5-methylfuran-2-sulfonamide] | < 100 | – | IC50 [2]: < 100 nM
CCC1=C(C)CN(C(=O)NCCc2ccc(S(=O)(=O)NC(=O)Nc3c4c(cc5c3CCC5)CCC4)cc2)C1=O [3-Ethyl-N-(4-(N-((1,2,3,5,6,7-hexahydro-s-indacen-4-yl)carbamoyl)sulfamoyl)phenethyl)-4-methyl-2-oxo-2,5-dihydro-1H-pyrrole-1-carboxamide] | < 1000 | < 1000 | –
